Results published in patent US11690824B2, “Antibacterial compounds” (THE GENERAL HOSPITAL CORPORATION, priority 2018, dated 2023).
Values after ≈ are worked out from the molar mass of the structure shown.

How the values were obtained:
human erythrocytes = assay: Human blood hemolysis; type: cell-based
Protocol: Human blood hemolysis. Hemolytic activity was evaluated as described in a previous study. Briefly, 100 μL of 4% human erythrocytes (Rockland Immunochemicals, Limerick, Pa., USA) was added to 100 μL of 2-fold serial dilutions of compounds in PBS, 0.2% DMSO (negative control), or 2% Triton-X 100 (positive control) in a 96-well plate. The 96-well plate was incubated at 37° C. for 1 h and then centrifuged at 500× g for 5 min. 50 μL of the supernatant was transferred to a fresh 96-well plate, and absorbance of supernatants was measured at 540 nm. Percent hemolysis was calculated using the following equation: (A540 nm of compound treated sample−A540 nm of 0.1% DMSO treated sample)/(A540 nm of 1% Triton X-100 treated sample−A540 nm of 0.1% DMSO treated sample)×100. HC50 (concentration of a compound causing 50% hemolysis) was determined using SigmaPlot 10.0 (Systat Software Inc., San Jose, Calif., USA).

MRSA MW2 [1] = assay: SYTOX Green membrane permeability assay; type: cell-based, S. aureus
Protocol: SYTOX Green membrane permeability assay. […] The washed cells were adjusted to OD600=0.4 with PBS. SYTOX Green (Molecular Probes, Waltham, Mass., USA) was added to 10 mL of the diluted bacterial suspension to a final concentration of 5 μM and incubated for 30 min at room temperature in the dark. 50 μL of the bacteria/SYTOX Green suspension was mixed with 50 μl of PBS containing twice the desired concentrations of compounds in black, clear-bottom, 96-well plates (Corning no. 3904). Fluorescence was measured at room temperature using a spectrophotometer (SpectraMax M2, Molecular Devices), with excitation and emission wavelengths of 485 nm and 525 nm, respectively. All experiments were conducted in biological triplicate.

Gram-negative bacteria = assay: MIC against Gram-negative bacteria; type: cell-based
Text: Bacterial strains, growth conditions, and persister isolation. Methicillin-resistant S. aureus strains, MW2 BAA-1707, ATCC 33591, and JE2, methicillin-susceptible S. aureus strains, NCTC 8325, Newman, and ATCC 29213, vancomycin-resistant S. aureus strain, VRS1, Enterococcus faecium E007, vancomycin-resistant E. faecium strains, C68,^7 WB312, and WC196, Klebsiella pneumoniae WGLW2 (BEI Resources, Manassas, Va., USA), Acinetobacter baumannii ATCC 17978, Pseudomonas aeruginosa PA14, and Enterobacter aerogenes ATCC 13048 were used to test antimicrobial activity (Table 1). S. aureus strains were grown in tryptic soy broth (TSB) (BD, Franklin Lakes, N.J., USA), and E. faecium was grown in brain-heart infusion (BHI) broth (BD, Franklin Lakes, N.J., USA) at 37° C. K. pneumoniae, A. baumannii, P. aeruginosa, and E. aerogenes were grown in Luria Bertani (LB) broth (BD, Franklin Lakes, N.J., USA) at 37° C.
Minimal inhibitory concentration (MIC) assay. The MICS of antibiotics were determined by the standard micro-dilution method recommended by the Clinical and Laboratory Standards Institute. MIC assays were conducted in biological triplicate.

[2] = system: MRSA MW2 persisters (stationary phase); assay: Persister killing assay; type: cell-based, S. aureus
Protocol: Persister killing assay. […] Persister cells of MRSA MW2 were prepared by growing cultures overnight to stationary phase at 37° C. at 200 rpm and washing 3 times with PBS. 1 mL of ˜2×10^8 CFU/mL MRSA persisters was added to 1 mL of PBS containing 2-fold of the desired concentration of antibiotics in a 96-well assay block (Corning Costar 3960). The assay block was incubated at 37° C., with shaking at 200 rpm. At specific times, […] were removed, washed once with PBS, serially diluted and spot-plated on TSA plates. Colonies were counted to enumerate the number of live cells after overnight incubation at 37° C. These experiments were conducted in biological triplicate.

[3] = system: MRSA-infected C. elegans glp-4(bn2);sek-1(km4); assay: C. elegans-MRSA liquid killing assay; type: in vivo
Protocol: C. elegans-MRSA liquid killing assay. The C. elegans-MRSA infection assay was conducted as described in a previous study. Briefly, a black, clear-bottom 384-well plate (Corning no. 3712) was filled with 20 μL M9 buffer including the desired concentrations of nTZDpa, 1% DMSO (negative control), or 10 μg/mL vancomycin (positive control). After adding 15 young adult C. elegans glp-4(bn2);sek-1(km4) animals to the wells using a COPAS large particle sorter (Union Biometrica, Mass., USA), 35 μL of MRSA MW2 suspension was added (OD600 0.08). The assay plate was sealed with a gas-permeable membrane (Breathe-Easy, Diversified Biotech, Dedham, Mass., USA), and then incubated in a humidified chamber at 25° C. for 5 days. After washing the plate 8-times with M9 buffer using a microplate washer (BioTek EL×405, BioTek, Vt., USA), worms were stained with 0.7 μM SYTOX Orange. To evaluate worm survivability, the worms were imaged using an Image Xpress Micro automated microscope (Molecular Devices), capturing both transmitted light and TRITC (535 nm excitation, 610 nm emission) fluorescent images with a 2× objective. Only dead worms stain with SYTOX Orange. The assay was conducted in biological triplicate.

MRSA MW2 [4] = assay: Transmission electron microscopy; settings: 4× MIC for 2 h
[5] = system: exponential-phase MRSA MW2; assay: Killing kinetics assay; type: cell-based, S. aureus; settings: 16 μg/ml (4× MIC), ~10^7 CFU/mL
Protocol: Killing kinetics assay. An MRSA MW2 overnight culture was diluted 1:10,000 in 25 mL TSB (˜10^5 CFU/mL) in a 250 mL flask and incubated at 37° C. with shaking at 200 rpm for 4.5 h until it reached exponential-phase (˜2×10^7 CFU/mL). 1 mL of the exponential phase cell culture was mixed with 1 mL of pre-warmed TSB containing twice the desired concentrations of antibiotics in a 96-well assay block (Corning Costar 3960). The assay block was incubated at 37° C. with shaking at 200 rpm. At every hour, 400 μl aliquots were taken, washed once with phosphate buffered saline (PBS), serially diluted and spot-plated onto tryptic soy agar (TSA, BD) plates. After incubation at 37° C. for overnight, colonies were counted to enumerate the number of cells. These experiments were conducted in biological triplicate.

For `O=C(O)c1c(Sc2ccccc2)c2cc(Cl)ccc2n1Cc1ccc(Cl)cc1` [nTZDpa], the “hemolysis of human erythrocytes” value (human erythrocytes; 32 μg/ml) was < 25%, the “toxicity to human erythrocytes” value (human erythrocytes; at or below 16 μg/mL) was “did not show significant toxicity” and the “HC50: median hemolytic concentration” value (human erythrocytes; human erythrocytes) was 47 µg/mL. For the same compound, the “concentration of maximum SYTOX Green fluorescence” value (MRSA MW2 [1]) was 16 µg/mL, the “antimicrobial activity against Gram-negative bacteria” value (Gram-negative bacteria) was “not effective against Gram-negative bacteria” and the persister killing ([2]; 8 μg/ml nTZDpa and 80 μg/ml gentamicin) was 3 logs. For the same compound, the “time to eradicate 100% of persisters” value ([2]; 16 μg/ml nTZDpa and 10 μg/ml gentamicin) was ≤ 3 h, the “killing of MRSA persisters in combination” value ([2]; 16 μg/ml nTZDpa combined with 10× MIC of other aminoglycosides) was “synergistic killing of MRSA persisters” and the “reduction of MRSA persisters” value ([2]; 32 μg/mL) was ~2 log. The “time to complete eradication of persisters” value ([2]; 64 μg/mL, ~5×10^7 CFU/mL) was ≤ 2 h, the “C. elegans rescued from MRSA-mediated lethality” value ([3]; 2 μg/ml to 16 μg/ml) was ~90% and the EC50 ([3]; Caenorhabditis elegans, 120 h, read-out: EC50 (median effective concentration), C. elegans survival) was ~0.6 µg/mL (≈ 1.4 µM). For the same compound, the “EC50 relative to EC50 of vancomycin” value ([3]; fold higher) was 2 fold, the “cell morphology by TEM” value (MRSA MW2 [4]) was “formation of mesosome-like structures in most cells, abnormal cell division, and cell lysis” and the “time to complete eradication of exponential-phase MRSA MW2” value [5] was ≤ 2 h.
